Reference: paper PMC11855827, “High-Throughput Screening of Five Compound Libraries for Anthelmintic Activity and Toxicity Leads to the Discovery of Two Flavonoid Compounds” (International Journal of Molecular Sciences, 2025)
Where two headings read alike, the source gives them in different places.

System: C. elegans
Experiment: microbe, parasite or virus in culture
Settings: Caenorhabditis elegans
[1] = 0 h, read-out: Percentage of motility inhibition 0 h, Table S2, C. elegans SS assay, 110 μM, 0 h, averages of 4 data points
[2] = 24 h, read-out: Percentage of motility inhibition 24 h, Table S2, C. elegans SS assay, 110 μM, 24 h, averages of 4 data points
[3] = 0 h, read-out: Percentage of motility inhibition 0 h
[4] = 24 h, read-out: Percentage of motility inhibition 24 h
[5] = 0 h, read-out: Inhibition (%) 110 μM (0 h), C. elegans L4 motility, 110 μM, 0 h, mean ± SD of four experiments
[6] = 24 h, read-out: Inhibition (%) 110 μM (24 h), C. elegans L4 motility, 110 μM, 24 h, mean ± SD of four experiments

| SMILES | inhibition at 110 µM [1] [%] | inhibition at 110 µM [2] [%] | further results |
| --- | --- | --- | --- |
| CC[C@@H]([C@H](C)O)n1ncn(-c2ccc(N3CCN(c4ccc(OC[C@@H]5CO[C@@](Cn6cncn6)(c6ccc(F)cc6F)C5)cc4)CC3)cc2)c1=O [Posaconazole] | 23 | 0 | – |
| O=C(C1CCCCC1)N1CC(=O)N2CCc3ccccc3C2C1 (centres unmarked) [Praziquantel] | 27 | 0 | – |
| O=C(O)CCc1nc2ccccc2[nH]1 [Procodazole] | – | – | inhibition at 110 µM [3]: 0%; inhibition at 110 µM [4]: 3% |
| Oc1cc(O)c2c(c1)O[C@H](c1ccc(O)c(O)c1)[C@H](O)[C@H]2c1c(O)cc(O)c2c1O[C@H](c1ccc(O)c(O)c1)[C@H](O)C2 [Procyanidin B2] | 14 | 27 | – |
| Oc1cc(O)c2c(c1)O[C@H](c1ccc(O)c(O)c1)[C@H](O)[C@H]2c1c(O)cc(O)c2c1O[C@H](c1ccc(O)c(O)c1)[C@H](O)[C@H]2c1c(O)cc(O)c2c1O[C@H](c1ccc(O)c(O)c1)[C@H](O)C2 [Procyanidin C1] | 2 | 29 | – |
| CC(=O)[C@H]1CC[C@H]2[C@@H]3CCC4=CC(=O)CC[C@]4(C)[C@H]3CC[C@]12C [Progesterone] | 0 | 12 | – |
| [H]/N=C(\N/C(=N/[H])Nc1ccc(Cl)cc1)NC(C)C [Proguanil] | 36 | 6 | – |
| CNC(=O)Oc1ccccc1OC(C)C [Propoxur] | 16 | 9 | – |
| CC(C)NCC(O)COc1cccc2ccccc12 (centres unmarked) [Propranolol, reference compound] | 0 | 0 | inhibition at 110 µM [5]: 84%; inhibition at 110 µM [6]: 35% |
| CCCOC(=O)c1cc(O)c(O)c(O)c1 [Propyl gallate] | 1 | 0 | – |
| CCCc1cc(C(N)=S)ccn1 [Prothionamide] | 44 | 7 | – |
| C=CC1=C(C)c2cc3[nH]c(cc4nc(cc5[nH]c(cc1n2)c(C)c5CCC(=O)O)C(CCC(=O)O)=C4C)c(C)c3C=C [Protoporphyrin IX] | 3 | 17 | – |
| Cc1oc(=O)oc1CN1CCN(c2cc3c(cc2F)c(=O)c(C(=O)O)c2n3C(C)S2)CC1 (centres unmarked) [Prulifloxacin] | 27 | 0 | – |
| COc1cc(O)c2c(=O)c(-c3ccc(O)cc3)coc2c1 [Prunetin] | 0 | 7 | – |
| O=C1C[C@@H](c2ccc(O)cc2)Oc2cc(O[C@@H]3O[C@H](CO)[C@@H](O)[C@H](O)[C@H]3O)cc(O)c21 [Prunin] | 13 | 2 | – |
| CC1(C)CC[C@]2(C(=O)O[C@@H]3O[C@H](CO)[C@@H](O)[C@H](O)[C@H]3O)CC[C@]3(C)C(=CC[C@@H]4[C@@]5(C)CC[C@H](O[C@@H]6O[C@H](C(=O)O)[C@@H](O)[C@H](O)[C@H]6O[C@@H]6OC[C@@H](O)[C@H](O)[C@H]6O)C(C)(C)[C@@H]5CC[C@]43C)[C@@H]2C1 [Pseudoginsenoside RT1] | 1 | 0 | – |
| CC(=O)O[C@]12CCC(C)=CC[C@]13CC[C@H]2[C@@](C)(/C=C/C=C(\C)C(=O)O)OC3=O [Pseudolaric Acid A] | 6 | 13 | – |
| COC(=O)C1=CC[C@@]23CC[C@@H]([C@@](C)(/C=C/C=C(\C)C(=O)O)OC2=O)[C@@]3(OC(C)=O)CC1 [Pseudolaric Acid B] | – | – | inhibition at 110 µM [3]: 0%; inhibition at 110 µM [4]: 9% |
| CC(=O)O[C@]12CCC(C(=O)O)=CC[C@]13CC[C@H]2[C@@](C)(/C=C/C=C(\C)C(=O)O)OC3=O [Pseudolaric Acid C2] | 0 | 0 | – |
| COC(=O)C1=CC[C@@]23CC[C@@H]([C@@](C)(/C=C/C=C(\C)C(=O)O)OC2=O)[C@@]3(O)CC1 [Pseudolaric Acid C] | 31 | 42 | – |
| O=c1ccc2cc3ccoc3cc2o1 [Psoralen] | – | – | inhibition at 110 µM [3]: 14%; inhibition at 110 µM [4]: 14% |

| SMILES | inhibition at 110 µM [1] [%] | inhibition at 110 µM [2] [%] | further results |
| --- | --- | --- | --- |
| CC(C)=C1CC[C@@H](C)CC1=O [Pulegone] | 6 | 5 | – |
| CN1CCCN=C1/C=C/c1cccs1 [Pyrantel pamoate, reference compound] | – | – | inhibition at 110 µM [5]: 94%; inhibition at 110 µM [6]: 18 ± 18% |
| NC(=O)c1cnccn1 [Pyrazinamide] | 4 | 13 | – |
| Cc1ncc(COP(=O)(O)O)c(C=O)c1O [Pyridoxal phosphate] | 11 | 4 | – |
| Cc1ncc(CO)c(CO)c1O [Pyridoxine] | 8 | 0 | – |
| CCc1nc(N)nc(N)c1-c1ccc(Cl)cc1 [Pyrimethamine] | 35 | 2 | – |
| O=Cc1ccc[nH]1 [Pyrrole‐2‐carboxaldehyde] | 0 | 6 | – |
| O=c1c(O)c(-c2ccc(O)c(O)c2)oc2cc(O)c(O)c(O)c12 [Quercetagetin] | – | – | inhibition at 110 µM [3]: 15%; inhibition at 110 µM [4]: 10% |
| O=c1c(O)c(-c2ccc(O)c(O)c2)oc2cc(O)cc(O)c12 [Quercetin] | 24 | 11 | – |
| O=c1c(O)c(-c2ccc(O)c(O)c2)oc2cc(O[C@@H]3O[C@H](CO)[C@@H](O)[C@H](O)[C@H]3O)cc(O)c12 [Quercimeritrin] | 0 | 3 | – |
| C[C@@H]1O[C@@H](Oc2c(-c3ccc(O)c(O)c3)oc3cc(O)cc(O)c3c2=O)[C@H](O)[C@H](O)[C@H]1O [Quercitrin] | 4 | 0 | – |
| CC1(C)CC[C@]2(C(=O)O)[C@H](O)C[C@]3(C)C(=CC[C@@H]4[C@@]5(C)CC[C@H](O)[C@@](C)(C=O)[C@@H]5CC[C@]43C)[C@@H]2C1 [Quillaic acid] | 14 | 16 | – |
| C=C[C@H]1C[N@@]2CC[C@H]1C[C@@H]2[C@@H](O)c1ccnc2ccc(OC)cc12 [Quinidine] | 23 | 3 | – |
| O=C(O)c1cccnc1C(=O)O [Quinolinic acid] | 0 | 0 | – |
| O=C(CBr)N1CC([N+](=O)[O-])([N+](=O)[O-])C1 [RRx‐001] | 19 | 6 | – |
| O=C(Nc1ccccc1F)N[C@H]1N=C(c2ccccc2)c2ccccc2NC1=O [RSV604] | 37 | 15 | – |
| O=C(Nc1ccc(Oc2ccc(Cl)cc2)c(Cl)c1)c1cc(I)cc(I)c1O [Rafoxanide] | 8 | 1 | – |
| C=C[C@]1(C)C[C@@H](OC(=O)CS[C@@H]2C[C@H]3CC[C@@H](C2)N3C)[C@]2(C)[C@H](C)CC[C@]3(CCC(=O)[C@H]32)[C@@H](C)[C@@H]1O [Retapamulin] | 27 | 9 | – |
| CC1=C(/C=C/C(C)=C/C=C/C(C)=C/C(=O)O)C(C)(C)CCC1 [Retinoic acid] | 18 | 40 | – |
| CC(=O)OC/C=C(C)/C=C/C=C(C)/C=C/C1=C(C)CCCC1(C)C [Retinyl acetate] | 0 | 0 | – |
| O=c1c(O[C@@H]2OC[C@@H](O)[C@H](O)[C@H]2O)c(-c2ccc(O)c(O)c2)oc2cc(O)cc(O)c12 [Reynoutrin] | 0 | 7 | – |
